Results published in patent US20090326008A1, “NF-kappa B Inhibitor” (priority 2006, published 2009).

Test system: COX2
Experiment: Relative COX2 mRNA expression in IL-1β-stimulated MKN-45 cells (real-time PCR)
Assay type: cell-based, human
Conditions: IL-1β-stimulated DMSO-treated cells = 100%, ACTB reference
Method: RNA was extracted from the cells used in Example 2 according to the manufacturer's protocol for ABI Prism 6100 Nucleic Acid PrepStation (a nucleic acid isolation system, product of Applied Biosystems). More specifically, after removal of the culture supernatant and washing with 1 mL of PBS, 250 μL of Nucleic Acid Purification Lysis Solution (Part No. 4305895, Applied Biosystems) was added, and then agitated using a shaker for 2 to 3 minutes. The Lysis Solution containing the cell lysate was collected, and the total amount was transferred to the wells of RNA Purification Tray (Part No. 4305673, Applied Biosystems), which had been pre-wet with 40 μL of Nucleic Acid Purification Wash Solution I (Part No. 4305891, Applied Biosystems) beforehand. Aspiration (20% pressure) was performed for 2 minutes to adsorb the sample onto the RNA Purification Tray, followed by sequentially adding and aspirating (20% pressure, 2 min.) 500 μL of Wash Solution I, Nucleic Acid Purification (Part No. 4305891, Applied Biosystems), 400 μL of Wash Solution II, Nucleic Acid Purification (Part No. 4305890, product of Applied Biosystems), 400 μL of the Wash Solution II, and 300 μL of the Wash Solution II in that order. Aspiration (90% pressure) was performed for 5 minutes to remove the water content from the RNA Purification Trays. After addition of 150 μL of Elution Solution, Nucleic Acid Purification (Part No. 4305893, product of Applied Biosystems), aspiration (20% pressure) was performed for 2 minutes, while collecting the outflow. This was used as collected RNA solution.
Absorbance of the collected RNA solution at 260 nm was measured using a microplate spectrophotometer (“SpectraMax Plus”, product of Molecular Devices) with an analysis software (“SOFTmaxPRO ver.3.1.2”, product of Molecular Devices), and the RNA concentration was determined from the absorbance. Likewise, absorbance at 280 nm was measured and the purity of the RNA was determined using the analysis software.
cDNA was synthesized according to the manufacturer's protocol for TaqMan® Reverse Transcription Reagents (Part No. N808-0234, product of Applied Biosystems). More specifically, about 0.5 μg of RNA, 2.5 μL of 10×RT buffer, 5.5 μL of MgCl2 solution, 5 μL of dNTP mixture, 1.25 μL of random hexamer (primers), 0.5 μL of RNase inhibitor, and 0.63 μL of MultiScribe Reverse Transcriptase (product of Applied Biosystems) were added to each collected RNA sample in a tube, and DEPC-treated water was added to make a total volume of 25 μL and stirred. A reaction consisting of 25° C. for 10 minutes, 48° C. for 30 minutes, and 95° C. for 5 minutes was performed using a PCR thermal cycler (“TaKaRa PCR Thermal Cycler Dice”, product of Takara Bio Inc.) to prepare a cDNA solution.
PCR was performed according to the manufacturer's protocol for TaqMan® Gene Expression Assays (product of Applied Biosystems). More specifically, 5 μL of TaqMan® Fast Universal PCR Master Mix (product of Applied Biosystems), 0.5 μL of TaqMan® Gene Expression Assays for the target gene (gene-specific probe and primer sets, product of Applied Biosystems), and 4.5 μL of the above-obtained cDNA solution were added to each sample and stirred. A PCR reaction consisting of heating at 95° C. for 20 seconds, followed by 40 cycles consisting of heating at 95° C. for 3 seconds and annealing and extension at 60° C. for 30 seconds was performed using a real-time PCR device (“Applied Biosystems 7500 Real-Time PCR System”) with SDS v1.4 Software (product of Applied Biosystems). Threshold cycle (Ct) values were calculated using the software.
The Assay IDs of the TaqMan® Gene Expression Assays for the target genes used are as follows:
The expression level of each gene was determined according to the following formula using the level of ACTB as a reference standard.
(Relative mRNA expression level)=2̂−{(Ct value of the target gene)−(Ct value of ACTB)} […]

COc1ccc(CC2SC(=S)NC2=O)c2c1N(CCC(C)C)C(=O)CC2 (stereo not shown) [Test Compound 965]
COX2 relative mRNA expression level, Mean: 37.6%
